According to PubChem BioAssay AID1845210 (Molecular Pharmacology Branch, DTP, NCI, 2023):

Test system: NCI-H226 complex tumor spheroids, viability
Assay: Anticancer human tumor NCI-H226 cell line growth inhibition;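 note: spheroids exposed to compound for 7 days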;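 for viability, T/C: 100% = DMSO vehicle control viability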
Conditions: for IC50: curve of first compound; for viability, T/C: stronger effect = lower value
Summary of the method: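 Single agents and combinations were tested on spheroids built from tumor cells plus HUVEC and hMSC, at half-log dilutions starting at or near clinical Cmax, else 10 microM; final DMSO 0.25% (v/v).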

## COc1cc(C)[nH]c(=O)c1CN1CCc2c(Cl)cc(C(OC)C3COC3)c(Cl)c2C1=O (stereo not given) + Cn1nnc2c(C(N)=O)ncn2c1=O
Second compound 1 µM
  IC50: > 10 µM
Second compound 3.16 µM
  IC50: > 10 µM
Second compound 10 µM
  IC50: > 10 µM
Second compound 31.6 µM
  IC50: > 10 µM
Second compound 100 µM
  IC50: > 10 µM
Second compound 1 µM, first compound 0.0316 µM
  viability, T/C: 133%
Second compound 1 µM, first compound 0.1 µM
  viability, T/C: 131%
Second compound 1 µM, first compound 0.316 µM
  viability, T/C: 130%
Second compound 1 µM, first compound 1 µM
  viability, T/C: 133%
Second compound 1 µM, first compound 3.16 µM
  viability, T/C: 129%
Second compound 1 µM, first compound 10 µM
  viability, T/C: 132%
Second compound 3.16 µM, first compound 0.0316 µM
  viability, T/C: 117%
Second compound 3.16 µM, first compound 0.1 µM
  viability, T/C: 138%
Second compound 3.16 µM, first compound 0.316 µM
  viability, T/C: 124%
Second compound 3.16 µM, first compound 1 µM
  viability, T/C: 121%
Second compound 3.16 µM, first compound 3.16 µM
  viability, T/C: 136%
Second compound 3.16 µM, first compound 10 µM
  viability, T/C: 108%
Second compound 10 µM, first compound 0.0316 µM
  viability, T/C: 132%
Second compound 10 µM, first compound 0.1 µM
  viability, T/C: 128%
Second compound 10 µM, first compound 0.316 µM
  viability, T/C: 125%
Second compound 10 µM, first compound 1 µM
  viability, T/C: 136%
Second compound 10 µM, first compound 3.16 µM
  viability, T/C: 128%
Second compound 10 µM, first compound 10 µM
  viability, T/C: 127%
Second compound 31.6 µM, first compound 0.0316 µM
  viability, T/C: 124%
Second compound 31.6 µM, first compound 0.1 µM
  viability, T/C: 144%
Second compound 31.6 µM, first compound 0.316 µM
  viability, T/C: 132%
Second compound 31.6 µM, first compound 1 µM
  viability, T/C: 125%
Second compound 31.6 µM, first compound 3.16 µM
  viability, T/C: 135%
Second compound 31.6 µM, first compound 10 µM
  viability, T/C: 145%
Second compound 100 µM, first compound 0.0316 µM
  viability, T/C: 118%
Second compound 100 µM, first compound 0.1 µM
  viability, T/C: 132%
Second compound 100 µM, first compound 0.316 µM
  viability, T/C: 136%
Second compound 100 µM, first compound 1 µM
  viability, T/C: 146%
Second compound 100 µM, first compound 3.16 µM
  viability, T/C: 137%
Second compound 100 µM, first compound 10 µM
  viability, T/C: 150%

## O=C(c1cc(Cc2n[nH]c(=O)c3ccccc23)ccc1F)N1CCN(C(=O)C2CC2)CC1 + CC[C@@]1(O)C(=O)OCc2c1cc1n(c2=O)Cc2cc3c(CN(C)C)c(O)ccc3nc2-1
Second compound 0.003 µM
  IC50: > 30 µM
Second compound 0.00949 µM
  IC50: > 30 µM
Second compound 0.03 µM
  IC50: > 30 µM
Second compound 0.0949 µM
  IC50: > 30 µM
Second compound 0.3 µM
  IC50: > 30 µM
Second compound 0.003 µM, first compound 0.0949 µM
  viability, T/C: 103%
Second compound 0.003 µM, first compound 0.3 µM
  viability, T/C: 95.8%
Second compound 0.003 µM, first compound 0.949 µM
  viability, T/C: 100%
Second compound 0.003 µM, first compound 3 µM
  viability, T/C: 106%
Second compound 0.003 µM, first compound 9.49 µM
  viability, T/C: 97.9%
Second compound 0.003 µM, first compound 30 µM
  viability, T/C: 100%
Second compound 0.00949 µM, first compound 0.0949 µM
  viability, T/C: 94.7%
Second compound 0.00949 µM, first compound 0.3 µM
  viability, T/C: 91.2%
Second compound 0.00949 µM, first compound 0.949 µM
  viability, T/C: 95.9%
Second compound 0.00949 µM, first compound 3 µM
  viability, T/C: 91%
Second compound 0.00949 µM, first compound 9.49 µM
  viability, T/C: 85.9%
Second compound 0.00949 µM, first compound 30 µM
  viability, T/C: 81.1%
Second compound 0.03 µM, first compound 0.0949 µM
  viability, T/C: 88.9%
Second compound 0.03 µM, first compound 0.3 µM
  viability, T/C: 90.4%
Second compound 0.03 µM, first compound 0.949 µM
  viability, T/C: 90.1%
Second compound 0.03 µM, first compound 3 µM
  viability, T/C: 91.2%
Second compound 0.03 µM, first compound 9.49 µM
  viability, T/C: 96.5%
Second compound 0.03 µM, first compound 30 µM
  viability, T/C: 89.9%
Second compound 0.0949 µM, first compound 0.0949 µM
  viability, T/C: 78.4%
Second compound 0.0949 µM, first compound 0.3 µM
  viability, T/C: 74.4%
Second compound 0.0949 µM, first compound 0.949 µM
  viability, T/C: 80.2%
Second compound 0.0949 µM, first compound 3 µM
  viability, T/C: 79.8%
Second compound 0.0949 µM, first compound 9.49 µM
  viability, T/C: 74.9%
Second compound 0.0949 µM, first compound 30 µM
  viability, T/C: 78.8%
Second compound 0.3 µM, first compound 0.0949 µM
  viability, T/C: 68.9%
Second compound 0.3 µM, first compound 0.3 µM
  viability, T/C: 68.7%
Second compound 0.3 µM, first compound 0.949 µM
  viability, T/C: 72.7%
Second compound 0.3 µM, first compound 3 µM
  viability, T/C: 66.8%
Second compound 0.3 µM, first compound 9.49 µM
  viability, T/C: 70.6%
Second compound 0.3 µM, first compound 30 µM
  viability, T/C: 60.7%
